The results in this text go back to ChEMBL document CHEMBL5230118, “Therapeutic potential of uracil and its derivatives in countering pathogenic and physiological disorders” (Eur J Med Chem, 2020).

One data set relates to DLD-1. The data set can be described thus: Antiproliferative activity against human DLD-1 cells assessed as cell growth inhibition. Format: functional, cell-based.
A further data set relates to COLO-320-HSR. The data set can be described thus: Antiproliferative activity against human COLO 320HSR cells assessed as cell growth inhibition. Format: functional, cell-based.
The test system of another data set is HT-29. The experiment in a line: Antiproliferative activity against human HT-29 cells assessed as cell growth inhibition. Format: functional, cell-based.
Data set [1] can be described thus: Bioavailability in human. Format: ADME, organism-based. The following applies: in vivo.
A short description of a further data set: in vivo. The settings on record: mouse.
The next data set has as its system Human alphaherpesvirus 3. The experiment in a line: Antiviral activity against clinical isolate VZV. Format: functional, organism-based.

`O=c1[nH]c(=O)n([C@@H]2O[C@H](CO)[C@@H](O)[C@@H]2O)cc1F`: the IC50 turned out to be 0.052 µM in the data set with DLD-1, 0.023 µM in the data set on COLO-320-HSR and 0.041 µM in the data set with HT-29.

In data set [1], `Cn1c(=O)cc(N2CCC[C@@H](N)C2)n(Cc2ccccc2C#N)c1=O` [ALOGLIPTIN] came in with a bioavailability of 75%.

In the case of `O=c1[nH]cc(F)c(=O)[nH]1` [FLUOROURACIL], the half-life in “in vivo” came to 16 min. `CC#Cc1cn([C@@H]2O[C@H](CO)[C@@H](O)[C@@H]2O)c(=O)[nH]c1=O` [NETIVUDINE] returned an IC50 with Human alphaherpesvirus 3 of 1 µM. This compound also yielded a bioavailability in data set [1] of 25%.
